From patent US12343316B2, “Cannabidiol and/or derivatives thereof for use in the treatment of mitochondrial diseases” (U[…] DE BARCELONA, priority 2019, dated 2025)

Tests used:
[1] = test system: Gad2:Ndufs4cKO mice; assay: Three-chamber social approach test; assay type: in vivo, mouse; details: control mice, CBD 100 mg/kg twice/day
Excerpt: Two mouse lines were used in this study: (1) a validated mouse genetic model of MD (Kruse, S. E., et al. Cell Metab. 2008, 7: 312-320; Quintana, A., et al. Proc. Natl. Acad. Sci. USA. 2010, 107: 10996-11001), lacking Ndufs4 constitutively (Ndufs4^−/−, Ndufs4 KO) and wild-type (WT) littermates (Ndufs4^+/+) as controls, and (2) a conditional knockout mouse line lacking Ndufs4 selectively in GABAergic cells (Bolea et al. 2019 (https://elifesciences.org/articles/47163). For the latter, mice expressing cre-recombinase under the control of the Gad2 promoter (Quintana, A., et al. Nat. Neurosci. 2012, 15: 1547-1555) and one floxed Ndufs4 allele (Gad2^cre/+:Ndufs4^lox/+) were bred with mice carrying two floxed Ndufs4 alleles (Ndufs4^lox/lox). Out of all the possible offspring, Gad2^cre/+: Ndufs4^lox/lox mice bear Ndufs4 deficiency selectively in GABAergic neurons. […]
A three-chamber arena was used to assess sociability as previously described (Puighermanal et al, Front Mol Neurosci., 2017, 10:419). […] The time spent sniffing the unfamiliar mouse and the empty wire cage was manually scored. The discrimination index for sociability was calculated as follows: (time exploring unfamiliar mouse—time exploring empty wire cage)/(total exploration time)*100. […]

[2] = rodents; cited from earlier work
[3] = test system: Ndufs4−/− mice; assay: Clasping onset in Ndufs4−/− mice; assay type: in vivo, mouse; details: CBD 100 mg/kg once daily vs vehicle-treated, p<0.05
Excerpt: (§1) Two mouse lines were used in this study: (1) a validated mouse genetic model of MD (Kruse, S. E., et al. Cell Metab. 2008, 7: 312-320; Quintana, A., et al. Proc. Natl. Acad. Sci. USA. 2010, 107: 10996-11001), lacking Ndufs4 constitutively (Ndufs4^−/−, Ndufs4 KO) and wild-type (WT) littermates (Ndufs4^+/+) as controls, and (2) a conditional knockout mouse line lacking Ndufs4 selectively in GABAergic cells (Bolea et al. 2019 (https://elifesciences.org/articles/47163). For the latter, mice expressing cre-recombinase under the control of the Gad2 promoter (Quintana, A., et al. Nat. Neurosci. 2012, 15: 1547-1555) and one floxed Ndufs4 allele (Gad2^cre/+:Ndufs4^lox/+) were bred with mice carrying two floxed Ndufs4 alleles (Ndufs4^lox/lox). Out of all the possible offspring, Gad2^cre/+: Ndufs4^lox/lox mice bear Ndufs4 deficiency selectively in GABAergic neurons. Mice with Gad2^cre/+:Ndufs4^lox/+ genotype with one functional Ndufs4 allele as well as mice with the Gad2^cre/+:Ndufs4^lox/lox genotype were used as controls.
Clasping behaviour was used as a sign of neurological degeneration (Johnson, S. C., et al. Science. 2013, 342: 1524-1528). Clasping consisted in an inward curling of the spine and a retraction of the forelimbs and/or hindlimbs toward the midline of the body.

[4] = test system: Gad2:Ndufs4cKO mice; assay: Survival of Gad2:Ndufs4cKO mice (cell type-specific mouse model of Leigh syndrome); assay type: in vivo
Excerpt: as §1
Given the early onset severe phenotype that results in death at a median age of ˜40 days in Ndufs4^−/− mice, it is difficult to study certain clinical signs that recapitulate some symptoms of the human pathology. […]

[5] = test system: Ndufs4−/− mice; assay: Survival of Ndufs4−/− mice (mouse model of Leigh syndrome); assay type: in vivo
Excerpt: as §1
Ndufs4 encodes a protein involved in assembly, stability, and activity of complex I of the mitochondrial electron transport chain. Ndufs4^−/− mice display a progressive neurodegenerative phenotype, which resembles the human disease and includes retarded growth rate, weight loss, lethargy, loss of motor skills, and premature death.

[6] = test system: Ndufs4−/− mice; assay: Accelerating rotarod performance in Ndufs4−/− mice; assay type: in vivo, mouse; details: Ndufs4KO mice, CBD 100 mg/kg once daily; postnatal day 30, 40, 50
Excerpt: as §1
Rotarod was performed at postnatal day 30, 40, and 50. Mice were placed on a rotating drum that gradually accelerated from 4 rpm to 40 rpm over 300 sec. Each trial ended when a mouse fell off, made one complete backward revolution while hanging on, or reached 5-min. Each mouse was tested in 3 trials/day spaced 20 min apart. The results of the 3 trials were averaged.

## C=C(C)[C@@H]1CCC(C)=C[C@H]1c1c(O)cc(CCCCC)cc1O [CBD, (−)-trans-2-p-mentha-l,8-dien-3-yl-5-pentylresorcinol]
[1]
  sociability (social interaction): no effect
[2]
  half-life: ~4.5 h
[3]
  appearance (onset) of clasping: significantly delayed
[4]; CBD 100 mg/kg intraperitoneal twice daily from postnatal day 35-40, p<0.0001
  average survival time: 87 days
[4]; CBD 100 mg/kg twice daily, log-rank p<0.0001
  life span (survival): extended the life span
[5]; Ndufs4KO mice, CBD 100 mg/kg once/day intraperitoneal from postnatal day 24-30
  median survival: 75.5 days
[5]; Ndufs4−/− mice, CBD 100 mg/kg once daily, log-rank p<0.0001
  life span (survival): significantly extended the life span
[6]
  rotarod performance (time to fall off): delayed the progressive decline
